Reference: publication PMC4424274, “Evaluation of [^11C]CB184 for imaging and quantification of TSPO overexpression in a rat model of herpes encephalitis” (European Journal of Nuclear Medicine and Molecular Imaging, 2015)
“And” between values parts separate entries of the source, which are not always exact repeats. Equal entries are not always repeated.

Key:
[1] = target: T1, TSPO (Rattus norvegicus, UniProt P16257); test: Kinetic modelling of PET data (2TCMR, Logan): BPND and VT; format: in vivo
T1 construct: from tissue; host or cells: Brain regions and peripheral organs of male Wistar rats, measured in vivo by PET and ex vivo by gamma counting
Description: PET scans with arterial blood sampling were performed in a different set of rats to generate input for pharmacokinetic modelling. For the arterial blood sampling a cannula was inserted into the femoral artery after induction of anaesthesia. The femoral vein was additionally cannulated for PET tracer injection. After cannulation, the rats were positioned in the camera and a transmission scan was acquired using a ^57Co point source. […] A 0.1 ml blood sample of was taken at 0, 5, 10, 15, 20, 30, 45, 60, 75, 90, 120, 180, 300, 450, 600, 900, 1,800 and 3,600 s after injection. A larger blood sample of 0.5 ml was taken at three time points (5, 15, 30 and/or 60 min) for metabolite analysis. After collection of each blood sample, heparinized saline was injected to prevent large changes in blood pressure. A 25 μl aliquot of whole blood was extracted from each sample for radioactivity measurement. The remainder of each sample was centrifuged at 13,000 rpm (15,996 g) for 8 min, and 25 μl plasma was taken for radioactivity measurement. The radioactivity in blood and plasma was measured with a gamma counter.
The TACs of those rats in which blood sampling was performed, together with their corresponding whole-blood and metabolite-corrected plasma curves, were used for pharmacokinetic modelling using PMOD v3.3 (PMOD Technologies, Zürich, Switzerland). […] The reversible two-tissue compartment model (2TCMR) with K 1/k 2 fixed to the whole cortex value and a fixed blood volume of 3 % were used to calculate the V T and nondisplaceable binding potential (BPND, calculated as k 3/k 4 [29]).

[2] = lipophilicity; cited from earlier work
[3] = system: TSPO; conditions: normal mice; cited from earlier work
[4] = control rats (PBS group), k3/k4

In the case of `CCCN(CCC)C(=O)Cc1c(-c2ccc(O[11CH3])cc2)nc2c(Cl)cc(Cl)cn12` [[^11C]CB184], the “Binding potential (BPND), Cerebellum” value ([1]; HSE group, k3/k4) is reported as 3.83 ± 0.63, the “Binding potential (BPND), Frontal cortex” value ([1]; HSE group, k3/k4) is reported as 3.08 ± 1.20 and the “Binding potential (BPND), Hippocampus” value ([1]; HSE group, k3/k4) is reported as 2.44 ± 0.34. For the same compound, the “Binding potential (BPND), Midbrain” value ([1]; HSE group, k3/k4) was 2.50 ± 0.51, the “Binding potential (BPND), Olfactory bulb” value ([1]; HSE group, k3/k4) was 8.82 ± 2.97 and the “Binding potential (BPND), Rest cortices” value ([1]; HSE group, k3/k4) was 2.69 ± 0.47. For the same compound, the “Binding potential (BPND), Striatum” value ([1]; HSE group, k3/k4) was 1.91 ± 0.41, the “Binding potential (BPND), Thalamus” value ([1]; HSE group, k3/k4) was 1.85 ± 0.41 and the “Binding potential (BPND), Whole brain” value ([1]; HSE group, k3/k4) was 3.25 ± 0.41. The “Binding potential (BPND), Amygdala” value [1, 4] was 2.4 ± 1.2 and 2.39 ± 1.23, the “Binding potential (BPND), Cerebellum” value [1, 4] was 2.88 ± 1.39 and the “Binding potential (BPND), Frontal cortex” value [1, 4] was 2.14 ± 1.23. For the same compound, the “Binding potential (BPND), Hippocampus” value [1, 4] was 1.55 ± 0.90, the “Binding potential (BPND), Hypothalamus” value [1, 4] was 2.7 ± 1.6 and 2.74 ± 1.62 and the “Binding potential (BPND), Medulla” value [1, 4] was 2.6 ± 1.2 and 2.64 ± 1.16. For the same compound, the “Binding potential (BPND), Midbrain” value [1, 4] was 1.73 ± 0.98, the “Binding potential (BPND), Olfactory bulb” value [1, 4] was 5.56 ± 2.67 and the “Binding potential (BPND), Pons” value [1, 4] was 2.6 ± 1.3 and 2.63 ± 1.31. The “Binding potential (BPND), Rest cortices” value [1, 4] was 2.27 ± 1.37, the “Binding potential (BPND), Septum” value [1, 4] was 1.5 ± 0.9 and 1.53 ± 0.90 and the “Binding potential (BPND), Striatum” value [1, 4] was 1.28 ± 0.74. The “Binding potential (BPND), Thalamus” value [1, 4] was 1.17 ± 0.78, the “Binding potential (BPND), Whole brain” value [1, 4] was 2.25 ± 1.17 and the “Increase of BPND in the medulla, HSE rats vs. control rats” value ([1]; medulla) was 93%. For the same compound, the logP [2] was 2.06 and the “Uptake in TSPO-rich regions (cerebellum and olfactory bulb) as compared with (R)-[^11C]PK11195” value [3] was “higher uptake”.
